We go through 52 compounds from patent US7247734B2 (Vernalis (Cambridge) Limited, priority 2001, dated 2007).

T1 sequence (P02829 whole entry, looked up): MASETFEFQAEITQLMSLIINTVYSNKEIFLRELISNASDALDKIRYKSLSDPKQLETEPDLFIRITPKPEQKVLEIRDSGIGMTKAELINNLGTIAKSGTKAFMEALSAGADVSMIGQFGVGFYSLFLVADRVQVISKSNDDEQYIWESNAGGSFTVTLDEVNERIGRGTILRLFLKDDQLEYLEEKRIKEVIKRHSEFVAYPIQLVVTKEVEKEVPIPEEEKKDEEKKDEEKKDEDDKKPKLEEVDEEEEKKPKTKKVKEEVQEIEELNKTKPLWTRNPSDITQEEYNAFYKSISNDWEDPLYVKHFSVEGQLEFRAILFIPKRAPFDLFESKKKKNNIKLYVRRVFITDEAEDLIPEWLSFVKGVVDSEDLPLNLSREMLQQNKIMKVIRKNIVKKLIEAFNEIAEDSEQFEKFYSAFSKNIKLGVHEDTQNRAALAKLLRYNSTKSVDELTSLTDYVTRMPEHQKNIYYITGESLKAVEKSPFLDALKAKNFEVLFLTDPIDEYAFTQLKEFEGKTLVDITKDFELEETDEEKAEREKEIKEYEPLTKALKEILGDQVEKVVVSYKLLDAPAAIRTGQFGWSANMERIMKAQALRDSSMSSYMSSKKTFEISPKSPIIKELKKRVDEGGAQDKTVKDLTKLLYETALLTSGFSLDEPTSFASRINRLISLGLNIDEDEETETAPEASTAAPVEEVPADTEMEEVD

One test concerns the target T1, yeast HSP90 (Saccharomyces cerevisiae, UniProt P02829).
T1 construct: made in house; host or cells: E. coli
The experiment in a line: Malachite green HSP90 ATPase assay. In kind it is biochemical. The conditions noted are these: ATPase IC50, activity range, ATPase assay. The source says: Two methods have been developed to measure the intrinsic ATPase activity of HSP90, using yeast HSP90 as a model system. The first method utilises a regenerating coupled enzyme assay. The second assay, based on the use of malachite green for the measurement of inorganic phosphate, was designed for high throughput screening (HTS) to identify novel HSP90 inhibitor drug candidates.
Colorimetric assays for the determination of phosphate, based on the formation of a phosphomolybdate complex, can be carried out in a few steps with inexpensive reagents and are well suited to the automation required for high throughput screening (see, e.g., Cogan et al., 1999). Enzymes that release inorganic phosphate are assayed using the reaction of the cationic dye, malachite green, with the a complex formed by a reaction of the inorganic phosphate with molybdate to generate a blue-green colour with an absorbance maximum at 610 nm (see, e.g., Baykov et al., 1988; Harder et al., 1994; Maehama et al., 2000). The method has been used in both high throughput (see, e.g., Rumsfeld et al., 2000) and ultra-high throughput screening formats (see, e.g., Layery et al., 2001) for a variety of non-HSP90 ATPases. However, this method is complicated by the non-enzymatic hydrolysis of ATP in the presence of acidic malachite green reagent, causing an increase in colour (see, e.g., Chan et al., 1986; Henkel et al., 1988). This process is mediated by molybdate and can be overcome by the addition of sodium citrate immediately after the reagent (see, e.g., Lanzetta et al., 1979; Schirmer et al., 1998; Baginski et al., 1975). This modification has been adapted to the 96-well microtitre plate assay previously described for other ATPases (see, e.g., Lanzetta et al., 1979) to produce the following protocol for HSP90 ATPase, which is suitable for high throughput screening.
Chemicals are of the highest purity commercially available and all aqueous solutions are made up in AR water. Because of the need to minimise contamination with inorganic phosphate, precautions should be taken with solutions and apparatus used in the assays. Glassware and pH meters are rinsed with double distilled or deionised water before use and, wherever possible, plastic ware should be used. Gloves are worn for all procedures. • (1) Immulon 96-well (Thermo Labsystems, Basingstoke, UK) or Cliniplate 384-well flat-bottomed polystyrene multiwell plates (Thermo Labsystems). • (2) Assay buffer of (a) 100 mM Tris-HCl, pH 7.4, (b) 20 mM KCl, (c) 6 mM MgCl2. Stored at 4° C. • (3) 0.0812% (w/v) malachite green (M 9636, Sigma Aldrich Ltd., Poole, UK). Stored at room temperature. • (4) 2.32% (w/v) polyvinyl alcohol USP (P 1097, Sigma Aldrich Ltd, Poole, UK) in boiling water (see Comment 1), allowed to cool, and stored at room temperature. • (5) 5.72% (w/v) ammonium molybdate in 6 M hydrochloric acid. Stored at room temperature. • (6) 34% (w/v) sodium citrate. Stored at room temperature. • (7) ATP, disodium salt, special quality (519979, Boehringer Mannheim, Lewes, UK). Stored at 4° C. • (8) E. coli expressed yeast HSP90 protein, purified >95% (see, e.g., Panaretou et al., 1998) and stored at −80° C. as 10 μl aliquots containing 0.5 mg of protein. Method
The following protocol was used: • (1) On the day of use, prepare the malachite green reagent from the stock solutions. Mix (a) 2 parts of malachite green, (b) 1 part of polyvinyl alcohol, (c) 1 part of ammonium molybdate, and (d) 2 parts of water. Initially, the reagent is a dark brown colour, but after standing at room temperature for about 2 h, this becomes a golden yellow colour and is ready for use. • (2) For the high throughput screening assays, the test compounds are dissolved at 200 μM in 2.0% DMSO and contained in daughter plates derived from the chemical libraries. Transfer 5 μl of each sample from the daughter plate to each well of the assay plate using automated equipment (see Comment 3). This represents a final concentration in the well of 40 μM.
Take `CNC(=O)c1[nH]nc(-c2cc(Cl)c(O)cc2O)c1-c1ccc(OC)cc1` [Example 168, 5-(5-Chloro-2,4-dihydroxy-phenyl)-4-(4-methoxy-phenyl)-2H-pyrazole-3-carboxylic acid methylamide]: the IC50 was under 50 µM.
As for `COc1ccc(-c2c(-c3cc(Cl)c(O)cc3O)n[nH]c2C(=O)O)cc1` [Example 167, 5-(5-Chloro-2,4-dihydroxy-phenyl)-4-(4-methoxy-phenyl)-2H-pyrazole-3-carboxylic acid], the IC50 was under 50 µM.

The test is the same for the next values; noted with them: Hsp90 IC50, activity class.
`CCc1cc(-c2n[nH]c(C)c2-c2ccc3c(c2)OCCO3)c(O)cc1O` [Example 49] registered an IC50 of under 10 µM.
`COc1ccc(-c2c(-c3ccc(O)cc3O)n[nH]c2C)cc1` [Example 92] gave an IC50 of 10 to 100 µM.
Consider `COc1ccc(-c2c(-c3cc(Br)c(O)cc3O)n[nH]c2C)cc1` [Example 93, 4-Bromo-6-[4-(4-methoxy-phenyl)-5-methyl-1H-pyrazol-3-yl]-benzene-1,3-diol], for which the IC50 was under 10 µM.

The test is the same for the next values; noted with them: activity class; read-out: Hsp90 IC50.
In the case of `COc1ccc(-c2c(C)n[nH]c2-c2cc(C)nc(N)n2)cc1` [Example 152, 4-[4-(4-Methoxy-phenyl)-5-methyl-2H-pyrazol-3-yl]-6-methyl-pyrimidin-2-ylamine], the IC50 was over 10 µM.
The same measure, in the same setting: the same measure for `Cc1ccc(-n2cc(-c3c[nH]nc3-c3ccc(O)cc3O)cn2)cc1` [Example 136]: over 10 µM; for `COc1ccc(-c2n[nH]cc2-c2ccc3c(c2)OCCO3)c(O)c1` [Example 122]: over 10 µM.
Still for that read-out and setting: the value for `CCCc1cc(-c2n[nH]c(C)c2-c2nc3ccccc3s2)c(O)cc1O` [Example 100] was 10 to 100 µM; that for `CCCc1cc(-c2n[nH]cc2-c2ccccc2)c(O)cc1OC` [Example 126] was over 10 µM.
The same measure, in the same setting: the same measure for `Oc1ccc(-c2n[nH]c(C(F)(F)F)c2-c2ccc3c(c2)OCCO3)c(O)c1` [Example 142]: over 10 µM.
For `CCc1cc(-c2n[nH]c(C(=O)O)c2-c2ncc(C)s2)c(O)cc1O` [Example 102], the IC50 was 10 to 100 µM.
Still for that read-out and setting: the value for `Cc1[nH]nc(-c2cc(Cl)c(O)cc2O)c1-c1ccccc1` [Example 127] was over 10 µM.
In the case of `CCc1cc(-c2n[nH]cc2-c2ccc3c(c2)OCO3)c(O)cc1OC` [Example 120], the IC50 is over 10 µM.
Same read-out and setting: the value for `CCc1cc(-c2n[nH]cc2-c2cnn(-c3ccccc3)c2)c(O)cc1O` [Example 145] was over 10 µM; that for `Oc1cc(O)c(-c2n[nH]cc2-c2ccccc2F)cc1Cl` [Example 65] was under 10 µM; that for `CCc1cc(-c2n[nH]cc2-c2ccc(OC)cc2)c(O)cc1O` [Example 141] was 10 to 100 µM.
On the same count and under the same terms, the same measure for `Oc1ccc(-c2[nH]ncc2-c2ccc(Br)cc2)c(O)c1` [Example 56]: over 10 µM; for `Cc1nc(-c2c[nH]nc2-c2cc(C)c(O)cc2O)cs1` [Example 90]: 10 to 100 µM; for `Cc1[nH]nc(-c2cccc(Cl)c2Cl)c1-c1ccc2c(c1)OCCO2` [Example 150]: over 10 µM.
On to `CCc1cc(-c2n[nH]cc2-c2nc(C)cs2)c(O)cc1OC` [Example 131], for which the IC50 is over 10 µM.
Consider `Oc1cc(O)c(-c2n[nH]cc2-c2ccc(Br)cc2)cc1Cl` [Example 57], for which the IC50 was under 10 µM.
On to `N#CCCCOc1cccc(-c2c[nH]nc2-c2cc(Cl)c(O)cc2O)c1` [Example 73], for which the IC50 was under 10 µM.
Take `COc1ccc(-c2c(-c3cc(-c4ccccc4)c(O)cc3O)n[nH]c2C)cc1` [Example 94]: the IC50 was under 10 µM.
With `COc1ccccc1-c1c[nH]nc1-c1cc(Cl)c(O)cc1O` [Example 71], the IC50 was in the range of 10 to 100 µM.
Still for that read-out and setting: the same measure for `CCc1cc(-c2n[nH]c(C)c2-c2nc3ccccc3n2C)c(O)cc1O` [Example 82]: 10 to 100 µM.
Consider `CC(=O)Nc1ccc(-c2n[nH]c(C)c2-c2ccc3c(c2)OCCO3)cc1` [Example 112], for which the IC50 was over 10 µM.
Still for that read-out and setting: the value for `Oc1cc(O)c(-c2n[nH]cc2-c2ccccc2)cc1Cl` [Example 53] was under 10 µM.
Still for that read-out and setting: the value for `COc1ccc(-c2c(-c3cc(Cl)c(F)cc3O)n[nH]c2C)cc1` [Example 147] was over 10 µM.
As to `Cc1[nH]nc(-c2ccc(OCC(=O)O)cc2O)c1-c1ccc(F)cc1` [Example 123], the IC50 is over 10 µM.
With `CCOc1cc(O)c(-c2n[nH]cc2-c2nc(C)cs2)cc1CC` [Example 130], the IC50 was over 10 µM.
The same measure, in the same setting: the value for `CCc1cc(-c2n[nH]cc2-c2nc(C)cs2)c(O)cc1OCc1cccc(C)c1` [Example 124] was over 10 µM; that for `Cc1[nH]nc(-c2ccc(C#N)cc2)c1-c1ccc2c(c1)OCCO2` [Example 117] was over 10 µM.
The same measure, in the same setting: the same measure for `Cc1[nH]nc(-c2ccc(O)cc2O)c1-c1cnn(-c2ccccc2)c1` [Example 137]: over 10 µM; for `N#CCCCOc1ccccc1-c1c[nH]nc1-c1cc(Cl)c(O)cc1O` [Example 74]: under 10 µM.
As for `CC(=O)Nc1cccc(-c2n[nH]c(C)c2-c2ccc3c(c2)OCCO3)c1` [Example 113], the IC50 is over 10 µM.
On the same count and under the same terms, the value for `CCc1cc(-c2n[nH]c(C(F)(F)F)c2-c2nc3ccccc3s2)c(O)cc1O` [Example 84] was 10 to 100 µM; that for `COc1cccc(-c2c[nH]nc2-c2cc(Cl)c(O)cc2O)c1` [Example 77] was under 10 µM; that for `Oc1ccc(-c2c[nH]nc2-c2cc(Cl)c(O)cc2O)cc1` [Example 76] was under 10 µM.
The same measure, in the same setting: the same measure for `CCc1cc(-c2n[nH]cc2-c2ccc(Br)cc2)c(O)cc1O` [Example 79]: under 10 µM; for `CCc1cc(-c2n[nH]c(C)c2-c2nc3ccccc3s2)c(O)cc1OCC(=O)NN` [Example 119]: over 10 µM; for `Cc1[nH]nc(-c2ccc(S(N)(=O)=O)cc2)c1-c1ccc2c(c1)OCCO2` [Example 111]: over 10 µM.
Same read-out and setting: the value for `Cc1[nH]nc(-c2cccc(C#N)c2)c1-c1ccc2c(c1)OCCO2` [Example 118] was over 10 µM; that for `COc1ccc(-c2c(C)n[nH]c2-c2cnc(N)nc2)cc1` [Example 151, 5-[4-(4-Methoxy-phenyl)-5-methyl-2H-pyrazol-3-yl]-pyrimidin-2-ylamine] was over 10 µM.

Staying with this test, now noted: activity range, ATPase assay; read-out: ATPase IC50.
Consider `Oc1cc(O)c(-c2n[nH]cc2-c2ccncc2)cc1Cl` [Example 175], for which the concentration for half-maximal inhibition (IC50) was under 50 µM.
Same read-out and setting: the same measure for `COc1ccc(-c2c(-c3ccc(CO)cc3O)n[nH]c2C)cc1` [Example 183]: over 50 µM; for `COc1ccc(-c2c(-c3cc(Cl)c(O)cc3O)n[nH]c2C(=O)NCc2ccccc2)cc1` [Example 171, 5-(5-Chloro-2,4-dihydroxy-phenyl)-4-(4-methoxy-phenyl)-2H-pyrazole-3-carboxylic acid benzylamide]: under 50 µM; for `CCc1cc(-c2nn(C)cc2-c2ccc(OC)c(OC)c2)c(O)cc1O` [Example 162, 4-[4-(3,4-Dimethoxy-phenyl)-1-methyl-1H-pyrazol-3-yl]-6-ethyl-benzene-1,3-diol]: over 50 µM.
With `Cc1nc2cc(-c3c[nH]nc3-c3cc(Cl)c(O)cc3O)ccc2s1` [Example 176], the IC50 was under 50 µM.
Turning to `COc1ccc(-c2cn(C)nc2-c2cc(Cl)c(O)cc2O)cc1OC` [Example 165], the IC50 is over 50 µM.
Still for that read-out and setting: the same measure for `Cc1[nH]nc(-c2ccc(C(=O)Nc3cccnc3)cc2)c1-c1ccc2c(c1)OCCO2` [Example 160]: over 50 µM.

The same test, now with this note: malachite green assay, 1 mM ATP; ±SD if n=3–5; read-out: HSP90 ATPase inhibition IC50.
As for `CCCc1cc(-c2n[nH]c(C)c2-c2ccc3c(c2)OCCO3)c(O)cc1O` [CCT018156], the IC50 was determined as 52.8 ± 12 µM.

The term IC50 denotes the concentration that inhibits the measured activity by half.
